According to US9006274B2, “Thiazole derivatives for treating dyskinesias caused by a chemical treatment” (Ipsen Pharma S.A.S., priority 2005, dated 2015):

Tests used:
[1] = system: tardive orofacial dyskinesia caused by haloperidol in rats; assay: Study of tardive dyskinesia in rats treated with a neuroleptic (haloperidol) over a long period, count of tongue protrusions and mastication movements; type: in vivo, rat; conditions: for effect on rats suffering from tardive dyskinesia and tardive orofacial dyskinesia caused by haloperidol: oral 10 and 30 mg/kg, dose-dependent effectiveness
Description: Principle of the In Vivo Test (Experimental Model with Rats): […] dyskinesia is a complication resulting from prolonged treatment with for example neuroleptics. It is characterized by repetitive, involuntary movements of the mouth, face and tongue. Long-term treatment with neuroleptics can lead to oromandibular dyskinesia, in particular it can lead to movements of mastication and protrusion of the tongue in rats. The principle of the test is to quantify the abnormal movements of the animals in a test cage during a determined time window (5 minutes). A neuroleptic, haloperidol (originating from Sigma®), is administered over a long period to rats using an Alzet® osmotic pump. This osmotic pump (reference 2ML4 Alzet®) is filled with a solution of haloperidol at 10 mg/ml. This pump is implanted subcutaneously in rats weighing between 150 g and 160 g. After anaesthesia of the rats with isoflurane, a small incision is made in the skin at the level of the scapulae to allow insertion of the pump. Then the incision is sutured. The pump makes it possible to continuously administer haloperidol to the rats at a dose of 2 mg/kg/day for 28 days. […] Before the treatment (t=0) with the compounds to be tested, the rats are placed individually in plastic test cages. […] Results: The rate of protrusion of the tongue and mastication movements is calculated statistically for each group of rats. […] The results presented were obtained with 8 tested animals.

[2] = system: dyskinesias induced by L-DOPA in rats; assay: Study of dyskinesias induced by L-DOPA (6-OHDA-lesioned dyskinetic rats), score of abnormal and involuntary movements; type: in vivo, rat; conditions: for effect on rats suffering from induced dyskinesia: oral 10 and 30 mg/kg, dose-dependent, statistically significant effectiveness
Description: Principle of the In Vivo Test (Experimental Model with Dyskinetic Rats):
An animal model is produced where the dyskinesia is induced in animals treated with L-Dopa (3-(3,4-dihydroxyphenyl)-L-alanine). First of all in order to cause a reduction in the level of endogenous dopamine at the level of the striatum, lesions are produced in the rats using 6-hydroxydopamine (6-OHDA). Following this injection of 6-OHDA, these animals become sensitive to the side-effects of L-dopa. In fact in order to remedy this endogenous dopamine deficiency, the rats receive an L-Dopa based treatment. […] The dyskinesia thus induced is evaluated by a statistical behaviour test.
In fact the L-Dopa passes through the hematoencephalic barrier with difficulty and therefore it can be decarboxylated at the peripheral level.
The study was carried out on young male rats. The rats are anaesthetized (chloral 400 mg/kg). Then they receive 2 stereotaxic injections of 6 μg of 6-hydroxydopamine in the left striatum using a 10 μl Hamilton microsyringe. The rats receive in fine 12 μg of 6-OHDA dissolved in 4 μl of 0.02% L-ascorbate. Four weeks later the lesion to the locus niger is produced in the rats. In order to quantify this lesion, an indirect measurement is used: the rotations induced by apomorphine (substance test). The animals receive a sub-cutaneous injection of 0.5 mg/kg of apomorphine and the right and left rotations of the animals are measured over 30 minutes. A net rotational asymmetry score is then determined. This score is expressed as the number of complete turns in the test cage/minute in the contralateral direction of the lesion.
Six weeks after the 6-hydroxydopamine (6-OHDA) lesions, the selected rats receive a daily intraperitoneal injection of L-Dopa methylester at a dose of 20 mg/kg and benserazide at a dose of 15 mg/kg. The injections take place from week 6 to week 9. From week 10, the rats receive a more concentrated dose: each day they receive an intraperitoneal injection of L-Dopa methylester at a dose of 25 mg/kg and benserazide at a dose of 15 mg/kg. From week 11, the rats receive two daily injections of L-Dopa methylester at a dose of 15 mg/kg and benserazide at a dose of 15 mg/kg. During week 11, the rats are evaluated 3 times per week for their level of abnormal and involuntary movements in order to determine whether the administered doses are sufficient to cause a dyskinesia in these animals. The rats are observed individually from 30 minutes to 180 minutes after injection of the L-Dopa; they are observed every 30 minutes. The movements which are observed at that time are considered to be dyskinetic movements when they meet the following criteria: • the movements are induced by the L-Dopa; • the movements affect the side of the body in the contralateral direction of the lesion; • the movements are repetitive, involuntary and cannot be attributed to normal behaviour.
The abnormal and involuntary movements are classified in 4 sub-types: • locomotive dyskinesia: increase in locomotion of the side contralateral to the lesion; • axial dystonia: deviation of the posture of the neck and of the upper part of the body; • oromandibular dyskinesia: stereotypical movements of the jaws and protrusion of the tongue; • dyskinesia of the anterior limbs: repetitive and rhythmic jerking of the anterior limbs accompanied by a dystonic posture and/or strong grasping movements of the paws.
For each of these sub-types, the rats are marked on a scale of 0 to 4, knowing that: • 0=no movement, • 1=occasional movements, • 2=frequent movements, • 3=continuous movements but interrupted by a sensory distraction, • 4=continuous, acute movements, not interrupted by a sensory distraction.
The compounds according to the invention are tested in order to determine their ability to modulate the effects of the L-Dopa.

[3] = 30 mg/kg orally, 120 minutes after the administration of L-Dopa, control (water) 12 (compound 1) and 12.9 (compound 2)
[4] = 30 mg/kg orally, after 180 minutes of treatment, reduced from 11.3 (compound 1) and from 13.8 (compound 2)

## CC(C)(C)c1cc(-c2csc(CN)n2)cc(C(C)(C)C)c1O.Cl [Compound 1, 4-[2-(aminomethyl)-1,3-thiazol-4-yl]-2,6-di(tert-butyl)phenol hydrochloride or dihydrochloride]
[1]; 10 mg/kg orally, counted for 5 minutes, reduced from 30.3
  score of chewing movements: 21
[1]; 30 mg/kg orally, counted for 5 minutes, reduced from 35.6
  score of chewing movements: 11.9
[1]
  effect on rats suffering from tardive dyskinesia and tardive orofacial dyskinesia caused by haloperidol: anti-dyskinetic effect
[2]; [3]
  score of abnormal and involuntary movements (dyskinesia score, maximum 16 points): 10 points
[2]; [4]
  score of abnormal and involuntary movements (dyskinesia score, maximum 16 points): 9.6 points
[2]
  effect on rats suffering from induced dyskinesia: anti-dyskinetic effect

## C[C@@H](N)c1nc(-c2cc(C(C)(C)C)c(O)c(C(C)(C)C)c2)cs1.Cl [Compound 2, 4-{2-[(1R)-1-aminoethyl]-1,3-thiazol-4-yl}-2,6-di-tert-butylphenol hydrochloride]
[1]; 10 mg/kg orally, after 3 hours, counted for 5 minutes, reduced from 11.4
  rate of protrusion of the tongue: 5
[1]; 30 mg/kg orally, after 3 hours, counted for 5 minutes, reduced from 15
  rate of protrusion of the tongue: 6
[1]; 30 mg/kg orally, after 3 hours, counted for 5 minutes, reduced from 35.5
  number of mastication movements: 23.7
[1]
  effect on rats suffering from tardive dyskinesia and tardive orofacial dyskinesia caused by haloperidol: anti-dyskinetic effect
[2]; 10 mg/kg orally, after 180 minutes of treatment, reduced from 13
  score of abnormal and involuntary movements (dyskinesia score, maximum 16 points): 10.6 points
[2]; [3]
  score of abnormal and involuntary movements (dyskinesia score, maximum 16 points): 9.7 points
[2]; [4]
  score of abnormal and involuntary movements (dyskinesia score, maximum 16 points): 9 points
[2]
  effect on rats suffering from induced dyskinesia: anti-dyskinetic effect
